Test results: US10208083B2 (priority 2015, dated 2019)
Marks after values point to notes of the source that are not given here.

What was measured:
[1] = test system: SCOV-3 human ovarian cancer; conditions: in vivo; for OS % on Day-70: test concentration or dose not given here; for PFS % on Day-70: test concentration or dose not given here
[2] = test system: murine P388 lymphocytic leukemia; parameters: species or system mice; conditions: mouse, in vivo, ip; note: test concentration or dose not given here
[3] = test system: C57Bl/6 mice; conditions: female, C57Bl/6, mouse, in vivo, ip
[4] = test system: UWB1.289 + BRCA1; experiment: cells; type: cell-based, human; parameters: TGI: unit not given here
[5] = test system: SKOV-3; experiment: cells; type: cell-based, human; parameters: TGI: unit not given here
[6] = test system: K-562; experiment: cells; type: cell-based, human; parameters: TGI: unit not given here
[7] = in vivo; conditions: female, C57Bl/6, mouse, ip
[8] = test system: T-47D; experiment: cells; type: cell-based, human; parameters: TGI: unit not given here
[9] = test system: PC-3; experiment: cells; type: cell-based, human; parameters: TGI: unit not given here
[10] = test system: UWB1.289; experiment: cells; type: cell-based, human; parameters: TGI: unit not given here
[11] = test system: MOLT-4; experiment: cells; type: cell-based, human; parameters: TGI: unit not given here
[12] = test system: OVCAR-3; experiment: cells; type: cell-based, human; parameters: TGI: unit not given here
[13] = test system: MCF-7; experiment: cells; type: cell-based, human; parameters: TGI: unit not given here

C[C@]12CC[C@H](OC(=O)CCOc3ccc(N(CCCl)CCCl)cc3)CC1=CC(=O)N[C@@H]1[C@@H]2CC[C@]2(C)C(=O)CC[C@@H]12 [Compound 18]
OS % on Day-70 [1]: 100%
PFS % on Day-70 [1]: 80%
TI % at Day-35 [1]: 44%
Cures [2]: 0/6
MST ± SD [2]: 34 days
T/C % [2]: 378* %
LD10 [3]: 85 mg/kg
TGI [4]: 38
GI50 ([4]; Homo sapiens, UWB1289, 48 h): 20 µM
IC50 ([4]; Homo sapiens, UWB1289, 48 h): 69 µM
TGI [5]: 46
GI50 ([5]; Homo sapiens, SK-OV-3, 48 h): 24 µM
IC50 ([5]; Homo sapiens, SK-OV-3, 48 h): 68 µM
TGI [6]: 38
GI50 ([6]; Homo sapiens, K562, 48 h): 6 µM
IC50 ([6]; Homo sapiens, K562, 48 h): 87 µM
LD50 [7]: 110 mg/kg
TGI [8]: 32
GI50 ([8]; Homo sapiens, T47D, 48 h): 14 µM
IC50 ([8]; Homo sapiens, T47D, 48 h): 72 µM
TGI [9]: 36
GI50 ([9]; Homo sapiens, PC-3, 48 h): 23 µM
IC50 ([9]; Homo sapiens, PC-3, 48 h): 70 µM
TGI [10]: 42
GI50 ([10]; Homo sapiens, UWB1289, 48 h): 13 µM
IC50 ([10]; Homo sapiens, UWB1289, 48 h): 70 µM
TGI [11]: 38
GI50 ([11]; Homo sapiens, MOLT-4, 48 h): 5 µM
IC50 ([11]; Homo sapiens, MOLT-4, 48 h): 76 µM
TGI [12]: 47
GI50 ([12]; Homo sapiens, OVCAR-3, 48 h): 20 µM
IC50 ([12]; Homo sapiens, OVCAR-3, 48 h): 70 µM
TGI [13]: 46
GI50 ([13]; Homo sapiens, MCF7, 48 h): 21 µM
IC50 ([13]; Homo sapiens, MCF7, 48 h): 79 µM
